Data taken from patent US20250084078A1, “FUSED RING-SUBSTITUTED SIX-MEMBERED HETEROCYCLIC COMPOUND, AND PREPARATION METHOD THEREFOR AND USE THEREOF” (GENFLEFT THERAPEUTICS (SHANGHAI) INC., priority 2022, published 2025).

What was measured:
HPK1 [1] = target: T1, HPK1 (Homo sapiens, UniProt Q92918); experiment: HPK1 kinase activity assay (ADP-Glo); details: 1 nM HPK1, 10 μM ATP, 0.1 μg/μL MBP
T1 sequence (Q92918 1-346): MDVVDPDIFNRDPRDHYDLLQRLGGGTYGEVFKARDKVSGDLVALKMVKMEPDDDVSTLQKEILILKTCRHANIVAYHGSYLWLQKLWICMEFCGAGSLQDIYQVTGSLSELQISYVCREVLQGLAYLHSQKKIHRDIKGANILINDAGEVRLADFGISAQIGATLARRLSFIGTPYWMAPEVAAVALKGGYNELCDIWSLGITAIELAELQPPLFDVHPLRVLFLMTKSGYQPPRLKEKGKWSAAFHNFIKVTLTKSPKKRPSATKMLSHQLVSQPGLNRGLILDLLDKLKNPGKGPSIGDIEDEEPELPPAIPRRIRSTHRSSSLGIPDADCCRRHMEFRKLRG
Protocol: Preparation of buffer: Ix reaction buffer (40 mM Tris-HCl, 20 mM MgCl2, 0.01% Brij35, 50 μM DTT, 0.1 mg/ml BSA) was prepared using sterile water, which was prepared and used on the day of the experiment.
Preparation of 1000× drug stock plate: a 1000× compound stock plate was prepared. […] The compound stock plate was sealed with a sealing film and stored in a −20° C. refrigerator for later use.
Compound preparation and dosing: the 1000× drug stock plate was taken and melted at room temperature in the dark. Then 5× drug intermediate plate was prepared using reaction buffer and mixed well. 2 μL was transferred from the 5× drug intermediate plate into a 384-well plate, and negative control well and positive control well (in which 2 μL reaction buffer containing 0.5% DMSO was added) were set. Each point was repeated twice.
Preparation and incubation of reaction mixture: HPK1 protein was diluted to a 2.5× working solution with reaction buffer. 4 μL 2.5×HPK1 protein was added to each well containing test compound and positive control well, and 4 μL of reaction buffer without HPK1 protein was added to the negative control well. The obtained mixture was centrifuged at 1000 rpm for 1 min and then incubated in a 20° C. incubator for 15 min. A 2.5× mixed working solution of MBP protein and ATP was prepared with reaction buffer at concentrations of 0.5 μg/μL and 50 μM, respectively. 4 μL of the mixed working solution of MBP and ATP was added to each well, centrifuged at 1000 rpm for 1 min, and then incubated in a 20° C. incubator for 90 min.
ADP-Glo detection and reading plate: 10 μl ADP-Glo was added to each well of the test plate. The resulting mixture was centrifuged at 1000 rpm for 1 min and incubated in a 20° C. incubator for 60 min. Then 10 μL of the final incubation solution was transferred from the test plate to a new 384-well plate. 10 μL of kinase detection reagent was added to each well, centrifuged at 400 g for 1 min, and incubated in a 20° C. incubator for 60 min Chemiluminescent signals were read by a microplate reader.

HPK1 [2] = target: HPK1 (Homo sapiens, UniProt Q92918); experiment: SLP76 phosphorylation assay (intracellular HPK1 inhibitory activity, p-SLP76 S376 ELISA in Jurkat cells); details: p-SLP76 IC50, Jurkat, Clone E6-1 cells; 1 h compound pre-incubation; anti-CD3 beads stimulation 20 min; Phospho-SLP-76 (Ser376) ELISA
Target sequence in this assay (Q92918 whole entry): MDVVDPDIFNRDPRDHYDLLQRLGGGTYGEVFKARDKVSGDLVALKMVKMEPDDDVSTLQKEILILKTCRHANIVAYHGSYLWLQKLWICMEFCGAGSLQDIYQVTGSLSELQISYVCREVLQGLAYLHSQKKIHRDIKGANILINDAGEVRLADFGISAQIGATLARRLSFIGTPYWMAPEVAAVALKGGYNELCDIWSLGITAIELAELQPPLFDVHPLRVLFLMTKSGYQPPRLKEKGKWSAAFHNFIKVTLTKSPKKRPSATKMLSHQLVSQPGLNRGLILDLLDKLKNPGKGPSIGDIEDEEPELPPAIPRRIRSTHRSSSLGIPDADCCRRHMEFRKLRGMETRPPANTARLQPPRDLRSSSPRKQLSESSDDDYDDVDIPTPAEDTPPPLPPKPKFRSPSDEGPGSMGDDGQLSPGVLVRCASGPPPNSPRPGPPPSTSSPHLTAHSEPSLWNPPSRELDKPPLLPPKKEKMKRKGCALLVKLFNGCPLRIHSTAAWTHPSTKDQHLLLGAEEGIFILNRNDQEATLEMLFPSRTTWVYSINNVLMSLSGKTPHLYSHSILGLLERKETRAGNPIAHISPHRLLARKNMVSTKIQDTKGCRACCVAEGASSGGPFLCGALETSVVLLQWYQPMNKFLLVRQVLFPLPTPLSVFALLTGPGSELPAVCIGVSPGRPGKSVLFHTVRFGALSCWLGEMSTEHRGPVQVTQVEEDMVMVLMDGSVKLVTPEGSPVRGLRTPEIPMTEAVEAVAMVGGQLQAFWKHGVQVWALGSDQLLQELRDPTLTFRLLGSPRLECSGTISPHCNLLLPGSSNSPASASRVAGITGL

[3] = HPK1 Kinase activity IC50, ADP-Glo

| Compound | IC50 (HPK1 [1]; [3]) [nM] | IC50 (HPK1 [2]) [nM] | IC50 (HPK1 [1]; read-out: HPK1 Kinase activity IC50, ADP-Glo) [nM] |
| --- | --- | --- | --- |
| Cc1c[nH]c2ncc(-c3cc4c(c([C@@H]5CCCN5)c3)CN(C(=O)[C@H](O)c3cccnc3)CC4)cc12 (single isomer, unassigned) [Compound Z287] | 0.4 | 338 | – |
| O=C(N1CCc2cc(-c3cnc4[nH]cc(Cl)c4c3)cc([C@@H]3COCCN3)c2C1)N1C[C@H]2C[C@@H]1CO2 [Compound Z608, ((1R,4R)-2-oxa-5-azabicyclo[2.2.1]heptan-5-yl)(6-(3-chloro-1H-pyrrolo[2,3-b]pyridin-5-yl)-8-((R)-morpholin-3-yl)-3,4-dihydroisoquinolin-2(1H)-yl)methanone] | 0.27 | 67.1 | – |
| CC(C)(O)C(=O)N1CCc2cc(-c3cnc4[nH]cc(Cl)c4c3)cc([C@@H]3CCCN3)c2C1 [Compound Z496] | 0.22 | 62.7 | – |
| CC(C)c1c[nH]c2ncc(-c3cc4c(c([C@@H]5COCCN5)c3)CN(C(=O)C(C)(C)O)CC4)cc12 [Compound Z419, (R)-2-hydroxy-1-(6-(3-isopropyl-1H-pyrrolo[2,3-b]pyridin-5-yl)-8-(morpholin-3-yl)-3,4-dihydroisoquinolin-2(1H)-yl)-2-methylpropan-1-one] | 0.11 | 74.2 | – |
| Cc1c[nH]c2ncc(-c3cc4c(c([C@@H]5CCCN5)c3)CN(C(=O)[C@@H](O)c3cccnc3)CC4)cc12 (single isomer, unassigned) [Compound Z288] | 0.69 | 321 | – |
| Cc1cn(C2CC2)nc1C(=O)N1CCc2cc(-c3cnc4[nH]cc(C)c4c3)cc([C@@H]3CCCN3)c2C1 [Compound Z342, (S)-(1-cyclopropyl-4-methyl-1H-pyrazol-3-yl)-[6-(3-methyl-1H-pyrrolo[2,3-b]pyridin-5-yl)-8-[pyrrolidin-2-yl]-3,4-dihydro-2(1H)-isoquinolin-yl]methanone] | – | – | 0.64 |
| Cc1c[nH]c2ncc(-c3cc4c(c([C@@H]5COCCN5)c3)CN(C(=O)[C@H]3CCOC3)CC4)cc12 [Compound Z469, [6-(3-methyl-1H-pyrrolidine[2,3-b]pyridin-5-yl)-8-[(R)-morpholin-3-yl]-3,4-dihydroisoquinolin-2(1H)-yl]-[(S)-tetrahydrofuran-3-yl]methanone] | 0.06 | 125 | – |
| Cc1c[nH]c2ncc(-c3cc4c(c([C@@H]5COCCN5)c3)CN(C(=O)N3C[C@@H]5CC[C@H]3CO5)CC4)cc12 (single isomer, unassigned) [Compound Z644] | 0.25 | 61.6 | – |
| CCc1c[nH]c2ncc(-c3cc4c(c([C@@H]5COCCN5)c3)CN(C(=O)N3CCOCC3)CC4)cc12 [Compound Z448, (R)-(6-(3-ethyl-1H-pyrrolo[2,3-b]pyridin-5-yl)-8-(morpholin-3-yl)-3,4-dihydroisoquinolin-2(1H)-yl)(morpholine)methanone] | 0.29 | 120 | – |
| CCc1c(Cl)[nH]c2ncc(-c3cc4c(c([C@@H]5COCCN5)c3)CN(C(=O)C(C)(C)O)CC4)cc12 [Compound Z422, (R)-1-(6-(2-chloro-3-ethyl-1H-pyrrolo[2,3-b]pyridin-5-yl)-8-(morpholin-3-yl)-3,4-dihydroisoquinolin-2(1H)-yl)-2-hydroxy-2-methylpropan-1-one] | 0.72 | 349 | – |
| O=C(N1CCc2cc(-c3cnc4[nH]cc(Cl)c4c3)cc([C@@H]3COCCN3)c2C1)N1C2CCC1COC2 [Compound Z489, (3-oxa-8-azabicyclo[3.2.1]octan-8-yl)(6-(3-chloro-1H-pyrrolo[2,3-b]pyridin-5-yl)-8-((R)-morpholin-3-yl)-3,4-dihydroisoquinolin-2(1H)-yl)methanone] | 0.21 | 82.1 | – |
| Cc1c[nH]c2ncc(-c3cc4c(c([C@@H]5COCCN5)c3)CN(C(=O)C(C)(C)O)CC4)cc12 [Compound Z372, (R)-2-hydroxy-2-methyl-1-[6-(3-methyl-1H-pyrrolo[2,3-b]pyridin-5-yl)-8-[morphin-3-yl]-3,4-dihydroisoquinolin-2(1H)-yl]propan-1-one] | 0.18 | 106 | – |
| CCc1c[nH]c2ncc(-c3cc4c(c([C@@H]5COCCN5)c3)CN(C(=O)N3CCOCC3)CC4)nc12 [Compound Z528, (R)-(6-(7-ethyl-5H-pyrrolo[2,3-b]pyrazin-2-yl)-8-(morpholin-3-yl)-3,4-dihydroisoquinolin-2(1H)-yl)(morpholino)methanone] | 0.16 | 42.4 | – |
| CCC(=O)N1CCc2cc(-c3cnc4[nH]cc(C)c4c3)cc(C3CCCN3)c2C1 (stereo not shown) [Compound Z35] | 0.87 | – | – |
| Cc1c[nH]c2ncc(-c3cc4c(c([C@H]5COCCN5)c3)CCN(C(=O)C3CCOCC3)C4)cc12 [Compound Z449, (S)-(7-(3-methyl-1H-pyrrolo[2,3-b]pyridin-5-yl)-5-(morpholin-3-yl)-3,4-dihydroisoquinolin-2(1H)-yl)(tetrahydro-2H-pyran-4-yl)methanone] | 12.4 | – | – |
| Cc1c[nH]c2ncc(-c3cc4c(c(C5COCCN5)c3)CN(C(=O)[C@](C)(O)C(F)(F)F)CC4)cc12 (single isomer, unassigned) [Compound Z309-2] | 22.7 | – | – |
| Cc1c(Cl)[nH]c2ncc(-c3cc4c(c([C@@H]5COCCN5)c3)CN(C(=O)C(C)(C)O)CC4)cc12 [Compound Z481, (R)-1-(6-(2-chloro-3-methyl-1H-pyrrolo[2,3-b]pyridin-5-yl)-8-(morpholin-3-yl)-3,4-tetrahydroisoquinolin-2(1H)-yl)-2-hydroxy-2-methylpropan-1-one] | – | 443 | – |
| C=Cc1c[nH]c2ncc(-c3cc4c(c([C@@H]5COCCN5)c3)CN(C(=O)C(C)(C)O)CC4)cc12 [Compound Z508, (R)-2-hydroxy-2-methyl-1-(8-(morpholin-3-yl)-6-(3-vinyl-1H-pyrrolo[2,3-b]pyridin-5-yl)-3,4-dihydroisoquinolin-2(1H)-yl)propan-1-one] | – | 304 | – |
| CCc1c[nH]c2ncc(-c3cc4c(c([C@@H]5COCCN5)c3)CN(C(=O)c3cnc(C)nc3)CC4)cc12 [Compound Z567, (R)-(6-(3-ethyl-1H-pyrrolo[2,3-b]pyridin-5-yl)-8-(morpholin-3-yl)-3,4-dihydroisoquinolin-2(1H)-yl)(2-methylpyrimidin-5-yl)methanone] | – | 125 | – |
| Cc1c[nH]c2ncc(-c3cc4c(c([C@@H]5COCCN5)c3)CN(C(=O)C3CC5CCC(C3)O5)CC4)cc12 (stereo partly drawn) [Compound Z504, (8-oxabicyclo[3.2.1]octan-3-yl)(6-(3-methyl-1H-pyrrolo[2,3-b]pyridin-5-yl)-8[(R)-morpholin-3-yl)-3,4-dihydroisoquinolin-2(1H)-yl)-methanone] | – | 232 | – |
| Cc1c[nH]c2ncc(-c3cc4c(c([C@@H]5COCCN5)c3)CN(C(=O)c3cnn(C5CC5)c3)CC4)cc12 [Compound Z456] | – | 315 | – |
| COc1c[nH]c2ncc(-c3cc4c(c([C@@H]5COCCN5)c3)CN(C(=O)N3C5CCC3COC5)CC4)cc12 [Compound Z582] | – | 160 | – |
| O=C([C@H]1CCOC1)N1CCc2cc(-c3cnc4[nH]cc(Cl)c4c3)cc([C@@H]3COCCN3)c2C1 [Compound Z631, (6-(3-chloro-1H-pyrrolo[2,3-b]pyridin-5-yl)-8-((R)-morpholin-3-yl)-3,4-dihydroisoquinolin-2(1H)-yl)((S)-tetrahydrofuran-3-yl)methanone] | – | 240 | – |
| CCc1c(F)[nH]c2ncc(-c3cc4c(c([C@@H]5COCCN5)c3)CN(C(=O)C(C)(C)O)CC4)cc12 [Compound Z464, (R)-3-(6-(3-ethyl-2-fluoro-1H-pyrrolo[2,3-b]pyridin-5-yl)-2-(2-hydroxy-2-methylpropanoyl)-1,2,3,4-tetrahydroisoquinolin-8-yl)morpholine] | – | 193 | – |
| O=C(N1CCOCC1)N1CCc2cc(-c3cnc4[nH]cc(Cl)c4n3)cc([C@@H]3COCCN3)c2C1 [Compound Z527, (R)-(6-(7-chloro-5H-pyrrolo[2,3-b]pyrazin-2-yl)-8-(morpholin-3-yl)-3,4-dihydroisoquinolin-2(1H)-yl)(morpholino)methanone] | – | 164 | – |
| O=C(N1CCc2cc(-c3cnc4[nH]cc(C(F)(F)F)c4n3)cc([C@@H]3COCCN3)c2C1)N1C2CCC1COC2 [Compound Z584, (3-oxa-8-azabicyclo[3.2.1]octan-8-yl)(8-((R)-morpholin-3-yl)-6-(7-(trifluoromethyl)-5H-pyrrolo[2,3-b]pyrazin-2-yl)-3,4-dihydroisoquinolin-2(1H)-yl)methanone] | – | 127 | – |
| Cc1c[nH]c2ncc(-c3cc4c(c([C@@H]5COCCN5)c3)CN(C(=O)N3CC[C@@H](F)C3)CC4)cc12 [Compound Z486, ((R)-3-fluoropyrrolidin-1-yl)(6-(3-methyl-1H-pyrrolo[2,3-b]pyridin-5-yl)-8-((R)-morpholin-3-yl)-3,4-dihydroisoquinolin-2(1H)-yl)methanone] | – | 153 | – |
| Cc1c[nH]c2ncc(-c3cc4c(c([C@@H]5COCCN5)c3)CN(C(=O)N3CCOC(C)(C)C3)CC4)cc12 [Compound Z453, (R)-(2,2-dimethylmorpholine)(6-(3-methyl-1H-pyrrolo[2,3-b]pyridin-5-yl)-8-(morpholin-3-yl)-3,4-dihydroisoquinolin-2(1H)-yl)methanone] | – | 148 | – |
